Test results: PubChem BioAssay (NCI)
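Step 1: Grow cells in 96-well plates. Step 2: Expose to compound for 48 hours at 5 concentrations. Step 3: Interpolate endpoints linearly; if unreached, use highest concentration. Abbreviation: GI50, concentration required for 50% inhibition of growth. TGI: concentration producing complete growth inhibition.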

Tests used:
Test in all cases: inhibition of tumour cell growth, NCI panel, 48 h
UACC-257 melanoma = test system: UACC-257 melanoma
KM12 colon = test system: KM12 colon
786-0 renal = test system: 786-0 renal
SK-MEL-2 melanoma = test system: SK-MEL-2 melanoma
OVCAR-5 ovarian = test system: OVCAR-5 ovarian
RPMI-8226 leukemia = test system: RPMI-8226 leukemia
SF-268 CNS = test system: SF-268 CNS
HOP-62 NSCLC = test system: HOP-62 NSCLC
NCI/ADR-RES ovarian = test system: NCI/ADR-RES ovarian
T-47D breast = test system: T-47D breast

SMILES | TGI (UACC-257 melanoma) | TGI (KM12 colon) | TGI (786-0 renal) | TGI (SK-MEL-2 melanoma) | TGI (OVCAR-5 ovarian) | TGI (RPMI-8226 leukemia) | TGI (SF-268 CNS) | TGI (HOP-62 NSCLC) | TGI (NCI/ADR-RES ovarian) | TGI (T-47D breast) | GI50 (UACC-257 melanoma) | GI50 (HOP-62 NSCLC) | GI50 (NCI/ADR-RES ovarian) | GI50 (KM12 colon) | GI50 (786-0 renal) | GI50 (SK-MEL-2 melanoma) | GI50 (OVCAR-5 ovarian) | GI50 (T-47D breast) | GI50 (SF-268 CNS) | GI50 (RPMI-8226 leukemia)
CC(=O)OC1CCn2nnc(CO)c21 (stereo unspecified) | > 100 µM | > 100 µM | > 100 µM | > 100 µM | > 100 µM | > 100 µM |  |  |  |  |  |  |  |  |  |  |  |  |  | 
C#CC1(OC(C)=O)CCC2C3CC=C4C=C(OC(C)=O)CCC4(C)C3CCC21C (stereo unspecified) | 35.3 µM | 40.2 µM | 85.5 µM | 41.1 µM | > 100 µM |  | 48.4 µM | > 100 µM | 79.3 µM | > 100 µM |  |  |  |  |  |  |  |  |  | 
Cc1cc(=O)oc2c(C)c(O)ccc12 | > 100 µM | > 100 µM | > 100 µM | > 100 µM | > 100 µM | > 100 µM | > 100 µM | > 100 µM | > 100 µM | > 100 µM |  |  |  |  |  |  |  |  |  | 
COc1ccc2c3c([nH]c2c1[N+](=O)[O-])C(C)N(Cc1ccc([N+](=O)[O-])cc1)CC3 (stereo unspecified) | 61.5 µM | 49.6 µM | > 100 µM | 41 µM | > 100 µM | 26.2 µM | 9.22 µM |  |  |  |  |  |  |  |  |  |  |  |  | 
O=S(=O)(NCCCNc1nccc(-c2c(-c3ccc(F)c(O)c3)nc3sccn23)n1)c1ccc(F)cc1 | 2.19 µM | 8.36 µM | > 100 µM | 3.01 µM | > 100 µM |  |  | 8.7 µM | 28 µM | 6.21 µM | 0.262 µM | 2.78 µM | 3.44 µM | 2.67 µM | 3.35 µM | 0.717 µM | 3.41 µM | 2.24 µM |  | 
O=C1NC(=O)C(c2ccccc2Cl)=C1Nc1cc(Cl)c(O)c(Cl)c1 |  | > 25 µM | > 25 µM | > 25 µM | > 25 µM | > 25 µM | > 25 µM | > 25 µM | > 25 µM | > 25 µM |  | 14.5 µM | 14.9 µM | 12 µM | 23.7 µM | 12 µM | > 25 µM | > 15.2 µM | 12.1 µM | > 19.4 µM
CN1CC(=O)N(C)c2ncn(Cc3ccccc3)c2C1=O |  | > 100 µM | > 100 µM |  |  | > 100 µM | > 100 µM |  |  |  |  |  |  |  |  |  |  |  |  | 
COc1ccc(C(=O)C(C(=O)CC(=O)Nc2cccc(C(F)(F)F)c2)c2ccc(OC)cc2)cc1 (stereo unspecified) | > 100 µM | > 100 µM | > 100 µM | > 100 µM | > 100 µM | > 100 µM | > 100 µM | > 100 µM |  |  |  |  |  |  |  |  |  |  |  | 
COc1ccc(-c2cc(=O)c3ccccc3o2)cc1N | > 100 µM | > 100 µM | > 100 µM | > 100 µM | > 100 µM | > 100 µM | > 100 µM | > 100 µM |  |  |  |  |  |  |  |  |  |  |  | 
O=C(O)NC(c1ccccc1)C(NC(=O)c1ccccc1)c1ccccc1 (stereo unspecified) | > 100 µM | > 100 µM | > 100 µM | > 100 µM | > 100 µM | > 100 µM | > 100 µM | > 100 µM |  |  |  |  |  |  |  |  |  |  |  | 
c1cc(N2CCCN(c3ccc(C4=NCCCN4)cc3)CC2)ccc1C1=NCCCN1 | > 100 µM | > 100 µM | > 100 µM |  | > 100 µM | > 100 µM | > 100 µM | > 100 µM | > 100 µM | > 100 µM | > 100 µM | > 100 µM | > 100 µM | > 100 µM | > 100 µM |  | > 100 µM | > 100 µM | > 100 µM | > 100 µM
COc1cc(OC)c(SSCCCCS(=O)O)c(OC)c1 | 23.5 µM | 29.4 µM | 35.4 µM | 54.6 µM | 30.5 µM |  | 44 µM | 67 µM |  |  |  |  |  |  |  |  |  |  |  | 
CC(=O)c1cccc(C)c1C(=O)O | > 100 µM | > 100 µM | > 100 µM | > 100 µM | > 100 µM | > 100 µM | > 100 µM | > 100 µM |  |  |  |  |  |  |  |  |  |  |  | 
COc1ccccc1C(O)(c1ccccc1)C(O)(c1ccccc1)c1ccccc1OC (stereo unspecified) | > 100 µM | > 100 µM | > 100 µM | > 100 µM | > 100 µM | > 100 µM | > 100 µM | > 100 µM |  |  |  |  |  |  |  |  |  |  |  | 
CCN(CC)CCCNC(=O)C1COc2cc(-c3cc(=O)c4ccccc4o3)ccc2O1 (stereo unspecified) | 50.1 µM |  | > 100 µM |  | > 100 µM | > 100 µM | > 100 µM | > 100 µM |  |  |  |  |  |  |  |  |  |  |  | 
CC1=C[C@]2(O)C(=O)[C@H](C)C[C@H]3[C@@H](CC[C@@](C)(O)/C=C\2C1=O)C3(C)C | 35.7 µM | > 100 µM | 39.5 µM | 37.9 µM | > 100 µM | > 73.3 µM | 52.1 µM | > 70.3 µM |  |  |  |  |  |  |  |  |  |  |  | 
COc1ccc(/C(=N\NC(=O)C(=O)NN)C(c2ccc(OC)cc2)C2(O)C(=O)Nc3ccccc32)cc1 (stereo unspecified) |  | > 100 µM | > 100 µM | > 100 µM | > 100 µM | > 100 µM | > 100 µM | > 100 µM |  |  |  |  |  |  |  |  |  |  |  | 
COC(=O)CC[C@]1(C)O[C@H]2[C@H]([C@@H](C)CCCC(C)=O)OC(=O)[C@@H]2C[C@H]1O | > 100 µM | > 100 µM | > 100 µM | > 100 µM | > 100 µM | > 100 µM | > 100 µM |  | > 100 µM |  | 44.9 µM |  | > 100 µM | > 100 µM | > 100 µM | > 100 µM | > 100 µM |  | > 100 µM | > 100 µM
CC(=O)[CH-]C(=O)c1ccccc1.CC(=O)[CH-]C(=O)c1ccccc1.CC(C)CCCC(C)[C@H]1CCC2[C@@H]3CC=C4C[C@@H]([O-])CC[C@]4(C)C3CC[C@@]21C.CC(C)CCCC(C)[C@H]1CCC2[C@@H]3CC=C4C[C@@H]([O-])CC[C@]4(C)C3CC[C@@]21C.[Ti+4] (stereo partly specified) | > 100 µM |  | > 100 µM | > 100 µM |  | > 100 µM | > 100 µM | > 100 µM |  |  | > 100 µM | > 100 µM |  |  | > 100 µM | > 100 µM |  |  | > 100 µM | > 100 µM
Cn1nc(-c2ccccc2)c(C(=O)/C=C/c2ccc(Cl)cc2)c(N2CCCCC2)c1=O |  |  | 3.67 µM |  |  | 5.52 µM |  | 5.68 µM |  |  |  |  |  |  |  |  |  |  |  | 
O=C1c2ccccc2-c2oc(=O)c3ccccc3c21 | > 100 µM | > 100 µM | > 100 µM | > 100 µM | > 100 µM | > 100 µM |  | > 100 µM | > 100 µM | > 100 µM |  |  |  |  |  |  |  |  |  | 
